{"source": "patent US9463194B2", "about": "“Methods of treating patients co-infected with HIV and tuberculosis” (priority 2014, dated 2016)", "key": {"[1]": {"settings": "in vivo; cited from earlier work"}, "[2]": {"test_system": "wild type HIV virus", "test": "In vitro assay of concentration-dependent inhibition of wild type HIV virus (IC95)", "assay_type": "cell-based", "source_text": "“IC95” or “EC95” refers to the inhibitory concentration required to achieve 95% of the maximum desired effect, which in the case of EVG is the inhibition of the HIV virus. This term is obtained using an in vitro assay evaluating the concentration-dependent inhibition of wild type HIV virus."}, "[3]": {"test": "Steady-state pharmacokinetic interaction study of EVG/COBI Composition plus evening COBI plus RFB QOD in healthy volunteers", "assay_type": "in vivo, human", "method": "“Ctau” or “Ctrough” is a pharmacokinetic (PK) parameter that refers to the concentration of the drug at the end of the dosing interval. This parameter is obtained by direct measurement of the drug concentrations in a plasma sample collected from the study subject at the end of the dosing interval (i.e., 24 hours post-dose) using a validated high-performance liquid chromatography/tandem mass spectrometry (HPLC/MS/MS) bioanalytical assay.\nThis study evaluated the steady-state pharmacokinetics and safety of the coadministered Composition and an additional dose of COBI in combination with RFB QOD.\nLack of PK alteration bounds for 90% confidence intervals (CI) about the geometric mean ratio (GMR) (coadministration: alone) were 70-143% for EVG and RFB."}, "[4]": {"settings": "RFB metabolite; cited from earlier work"}, "[5]": {"settings": "ritonavir-boosted EVG + RFB QOD; cited from earlier work"}, "[6]": {"settings": "coadministration (Composition QD + COBI 150 mg evening + RFB 150 mg QOD) : alone, healthy volunteers, n = 14, steady state"}}, "note": "Entries after “also recorded” stand apart in the source; their conditions may differ."}
{"molecule": "COc1cc2c(cc1Cc1cccc(Cl)c1F)c(=O)c(C(=O)O)cn2[C@H](CO)C(C)C", "note": "[EVG, elvitegravir]", "values": [{"measurement": "exposures upon coadministration with RFB (previous research)", "setting": "[1]", "result": "substantially lower"}, {"measurement": "levels lower by 24 hrs post dose when co-administered with RFB", "setting": "[1]", "result": 70, "unit": "%"}, {"measurement": "IC95", "setting": "[2]", "result": 0.045, "unit": "µg/mL"}]}
{"molecule": "CO[C@H]1/C=C/O[C@@]2(C)Oc3c(C)c(O)c4c(c3C2=O)C2=NC3(CCN(CC(C)C)CC3)NC2=C(NC(=O)/C(C)=C\\C=C\\[C@H](C)[C@H](O)[C@@H](C)[C@@H](O)[C@@H](C)[C@H](OC(C)=O)[C@@H]1C)C4=O", "note": "[RFB, 1′,4-didehydro-1-deoxy-1,4-dihydro-5′-(2-methylpropyl)-1-oxorifamycin XIV]", "values": [{"measurement": "exposures versus reference treatment (in words)", "setting": "[3]; Composition QD + COBI 150 mg evening + RFB 150 mg QOD, no-effect boundary 70-143%", "result": "within the predefined no-effect boundary; also recorded: clinically equivalent exposures"}, {"measurement": "Ctau higher versus reference treatments", "setting": "[3]; EVG QD + COBI BID + RFB QOD versus reference treatment", "result": 41, "unit": "%"}, {"measurement": "AUCtau % GMR (90% CI)", "setting": "[3]; [6]", "result": "114.44 (100.27, 130.62) %"}, {"measurement": "Cmax % GMR (90% CI)", "setting": "[3]; [6]", "result": "116.26 (101.44, 133.23) %"}, {"measurement": "Ctau % GMR (90% CI)", "setting": "[3]; [6]", "result": "140.76 (123.76, 160.09) %"}]}
{"molecule": "25-O-desacetylrifabutin", "values": [{"measurement": "exposure higher versus RFB alone", "setting": "[3]; RFB metabolite, EVG QD + COBI BID + RFB QOD versus RFB alone", "result": "~12", "unit": "fold"}, {"measurement": "contribution to total antimycobacterial activity", "setting": "[4]", "result": "~10", "unit": "%"}]}
{"molecule": "CC(C)c1nc(CN(C)C(=O)N[C@@H](CCN2CCOCC2)C(=O)N[C@H](CC[C@H](Cc2ccccc2)NC(=O)OCc2cncs2)Cc2ccccc2)cs1", "note": "[COBI]", "values": [{"measurement": "exposures upon coadministration with RFB (previous research)", "setting": "[1]", "result": "substantially lower"}, {"measurement": "levels lower by 24 hrs post dose when co-administered with RFB", "setting": "[1]", "result": 70, "unit": "%"}]}
{"molecule": "CC(C)c1nc(CN(C)C(=O)N[C@H](C(=O)N[C@@H](Cc2ccccc2)C[C@H](O)[C@H](Cc2ccccc2)NC(=O)OCc2cncs2)C(C)C)cs1", "note": "[ritonavir]", "values": [{"measurement": "exposure when co-administered with RFB QOD (ritonavir boosting, in words)", "setting": "[5]", "result": "maintained through the end of the dosing interval"}]}
